Reference: patent US20240376109A1, “PYRAZOLO[1,5-A]PYRIMIDINE COMPOUND FOR THE TREATMENT OF DERMAL DISORDERS” (OTSUKA PHARMACEUTICAL CO., LTD., priority 2021, published 2024)
Read-outs that look alike come from different tables or passages of the source.

Legend:
PAR2 = target: T1, PAR2 (Homo sapiens, UniProt P55085); experiment: Intracellular calcium concentration measurement (SLIGKV-NH2-induced calcium change, Fluo-8, FDSS/μCELL); assay type: cell-based
T1 construct: HEK293 cell lines derived from human embryonic kidney cultured in a MEM culture medium; endogenous in cells; host or cells: HEK293
T1 sequence (P55085 26-397): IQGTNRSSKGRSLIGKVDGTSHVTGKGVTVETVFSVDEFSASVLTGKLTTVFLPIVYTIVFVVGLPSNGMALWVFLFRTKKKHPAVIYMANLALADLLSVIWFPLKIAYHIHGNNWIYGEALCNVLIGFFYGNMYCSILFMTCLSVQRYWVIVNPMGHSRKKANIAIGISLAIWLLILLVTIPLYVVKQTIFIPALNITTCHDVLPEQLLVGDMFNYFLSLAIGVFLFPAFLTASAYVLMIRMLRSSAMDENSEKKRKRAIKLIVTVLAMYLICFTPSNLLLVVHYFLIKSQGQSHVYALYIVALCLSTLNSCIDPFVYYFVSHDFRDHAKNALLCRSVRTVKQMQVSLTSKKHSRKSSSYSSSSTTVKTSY

ICR mice = experiment: Scratching behavior test with PAR2 agonist peptide (SLIGRL-NH2) administration; assay type: in vivo, mouse; conditions: 40 μL of 6% test compound solution applied to back, SLIGRL-NH2 intradermal, scratching counted 10 to 40 minutes after
Method: Test Example 2: Scratching Behavior Test with PAR2 Agonist Peptide Administration
Magnets for measuring scratching behavior(Neuroscience, Inc.) were implanted in both legs of 6- to 7-week-old female ICR mice under 3.5% isoflurane inhalation anesthesia.
Under isoflurane inhalation anesthesia, the upper back was shaved about 2×3 cm with a shaver and 40 μL of a 6% of test compound solution was applied with a micropipette. The animals were then kept in a dedicated cage for 1 hour. […] Then, under isoflurane inhalation anesthesia, 10 μL of a 25 mg/mL solution of PAR2 agonist peptide (SLIGRL-NH2) in distilled water was administered intradermally by using a needle attached to a Hamilton syringe. The animals were returned to the cage and the scratching frequency was measured by the device for 30 minutes from 10 to 40 minutes after the administration.
The inhibitory effect of the test compounds on scratching behavior was calculated as a percentage of the number of scratches in the solvent-applied and PAR2 agonist peptide-treated group, and is shown in Table 4 as a percentage.

[1] = HEK293 cells, SLIGKV-NH2 10 μM-induced intracellular calcium change, read-out: IC50

Compound | IC50 (PAR2; [1]) [nM] | other results
CC(C)c1cc(C23CC4CC(CC(C4)C2)C3)nc2cc(C(=O)N3CCCCC3(C)C)nn12 [Example 2] | 31 | scratching-behavior inhibition rate (ICR mice; solvent 100% ethanol): 46%
CC1(C)CC(O)CCN1C(=O)c1cc2nc(CC3CCCCC3)cc(C(F)(F)F)n2n1 (stereo not shown) [Example 5] | 130 | scratching-behavior inhibition rate (ICR mice; solvent 100% ethanol): 36%
CCC(CC)c1cc(CC2CCCC2)nc2cc(C(=O)N3CCCCC3(C)C)nn12 [Example 13] | 69 | scratching-behavior inhibition rate (ICR mice; solvent 100% ethanol): 37%
CCCc1cc(CC2CCCC2)nc2cc(C(=O)N3CCCCCC3)nn12 [Example 16] | 259 | scratching-behavior inhibition rate (ICR mice; solvent 100% ethanol): 47%
CC(C)c1cc(CC2CCCC2)nc2cc(C(=O)N3CCSCC3(C)C)nn12 [Example 18] | 36 | scratching-behavior inhibition rate (ICR mice; solvent 100% ethanol): 39%
CC(C)c1cc(C2CCCCC2)nc2cc(C(=O)N3CCCCC3(C)C)nn12 [Example 32] | 118 | scratching-behavior inhibition rate (ICR mice; solvent 100% ethanol): 41%
CCC(CC)c1cc(CC2CCCCC2)nc2cc(C(=O)N3CCCCCC3)nn12 [Example 37] | 88 | scratching-behavior inhibition rate (ICR mice; solvent 100% ethanol): 30%
CC1(C)CNCCN1C(=O)c1cc2nc(C34CC5CC(CC(C5)C3)C4)cc(C(F)(F)F)n2n1 [Example 53, [5-(1-adamantyl)-7-(trifluoromethyl)pyrazolo[1,5-a]pyrimidin-2-yl]-(2,2-dimethylpiperazin-1-yl)methanone] | 404 | scratching-behavior inhibition rate (ICR mice; solvent Acetone/methanol (1:1)): 44%
O=C(c1cc2nc(C3CCCCC3)cc(C(F)(F)F)n2n1)N1CCCCCC1 [Example 54] | 355 | scratching-behavior inhibition rate (ICR mice; solvent Acetone/methanol (1:1)): 25%
CC(C)c1cc(C23CC4CC(CC(C4)C2)C3)nc2cc(C(=O)N3CCNCC3(C)C)nn12 [Example 59] | 357 | scratching-behavior inhibition rate (ICR mice; solvent Acetone/methanol (1:1)): 28%
CC1(C)CCCCN1C(=O)c1cc2nc(C3CCCCC3)cc(C(F)(F)F)n2n1 [Example 65] | 107 | scratching-behavior inhibition rate (ICR mice; solvent 100% ethanol): 27%
CCC(CC)c1cc(CC2CCCC2)nc2cc(C(=O)N3CCC(C)(C)C(=O)C3(C)C)nn12 [Example 70] | 51 | scratching-behavior inhibition rate (ICR mice; solvent 100% ethanol): 33%
CC(C)c1cc(CC2CCCC2)nc2cc(C(=O)N3CCC(C)(C)C(=O)C3(C)C)nn12 [Example 71] | 115 | scratching-behavior inhibition rate (ICR mice; solvent 100% ethanol): 27%
O=C(c1cc2nc(C34CC5CC(CC(C5)C3)C4)cc(C(F)(F)F)n2n1)N1CCCCCC1 [Example 94] | 141 | scratching-behavior inhibition rate (ICR mice; solvent Acetone/methanol (1:1)): 44%
CC1(C)CCN(C(=O)c2cc3nc(CC4CCCC4)cc(C(F)(F)F)n3n2)C(C)(C)C1=O [Example 105] | 83 | scratching-behavior inhibition rate (ICR mice; solvent 100% ethanol): 27%
CC1(C)CCCCN1C(=O)c1cc2nc(C3C4CC5CC(C4)CC3C5)cc(C(F)(F)F)n2n1 (stereo not shown) [Example 112] | 113 | –
COC1CCN(C(=O)c2cc3nc(CC4CCCC4)cc(C(F)(F)F)n3n2)C(C)(C)C1 (stereo not shown) [Example 113] | 263 | –
COC1CCN(C(=O)c2cc3nc(CC4CCCC4)cc(C(C)C)n3n2)C(C)(C)C1 (stereo not shown) [Example 114] | 234 | –
O=C(c1cc2nc(CC3CCCCC3)cc(C3CCCCCC3)n2n1)N1CCCCCC1 [Example 115] | 236 | –
COCCN1CCN(C(=O)c2cc3nc(CC4CCCCC4)cc(C(C)C)n3n2)C(C)(C)C1 [Example 116, [5-(cyclohexylmethyl)-7-propan-2-ylpyrazolo[1,5-a]pyrimidin-2-yl]-[4-(2-methoxyethyl)-2,2-dimethylpiperazin-1-yl]methanone] | 233 | –
CC(C)c1cc(CC2CCCCC2)nc2cc(C(=O)N3CCC(O)CC3(C)C)nn12 (stereo not shown) [Example 118] | 253 | –
CC(C)c1cc(CC2CCCCC2)nc2cc(C(=O)N3CCC(C)(C)C(=O)C3(C)C)nn12 [Example 119] | 185 | –

Compound | IC50 (PAR2; [1]) [nM] | other results
CC(C)c1cc(CC2CCCCC2)nc2cc(C(=O)N3CCC(C)(C)C(O)C3(C)C)nn12 (stereo not shown) [Example 120] | 298 | –
CCc1cc(C2CCCCC2)nc2cc(C(=O)N3CCCCC3(C)C)nn12 [Example 121] | 245 | –
COC1(C)CCCN(C(=O)c2cc3nc(CC4CCCCC4)cc(C(C)C)n3n2)C1(C)C (stereo not shown) [Example 122] | 178 | –
CC(C)c1cc(CC2CCCC2)nc2cc(C(=O)N3CC=CCCC3)nn12 [Example 123] | 135 | –
CCC(C)c1cc(CC2CCCCC2)nc2cc(C(=O)N3CCCCC3(C)C)nn12 (stereo not shown) [Example 124] | 144 | –
CC(C)c1cc(CC2CCCCC2)nc2cc(C(=O)N3CCSCC3)nn12 [Example 125] | 256 | –
CC(C)c1cc(CC2CCCCC2)nc2cc(C(=O)N3CC=CCCC3)nn12 [Example 126] | 207 | –
CC1CCCN(C(=O)c2cc3nc(CC4CCCC4)cc(C(C)C)n3n2)CC1 (stereo not shown) [Example 127] | 229 | –
CCC(C)c1cc(CC2CCCCC2)nc2cc(C(=O)N3CCSCC3)nn12 (stereo not shown) [Example 128] | 151 | –
C=C1CCCN(C(=O)c2cc3nc(CC4CCCC4)cc(C(C)C)n3n2)C1(C)C [Example 129] | 208 | –
CCC(CC)c1cc(CC2CCCCCC2)nc2cc(C(=O)N3CCCCC3(C)C)nn12 [Example 130] | 297 | –
CCCN(CC)c1cc(CC2CCCCC2)nc2cc(C(=O)N3CCCCCC3)nn12 [Example 131] | 225 | –
CC1CCC(Cc2cc(C(C)C)n3nc(C(=O)N4CCCCC4)cc3n2)CC1 (stereo not shown) [Example 132] | 197 | –
CCCCCc1cc(C23CC4CC(CC(C4)C2)C3)nc2cc(C(=O)N3CCCCCC3)nn12 [Example 133] | 360 | –
O=C(c1cc2nc(CC3CCCC3)cc(C3CCCCC3)n2n1)N1CCCCCC1 [Example 134] | 382 | –
CCCN(C)c1cc(CC2CCCCC2)nc2cc(C(=O)N3CCCCCC3)nn12 [Example 135] | 386 | –
CCc1cc(C2CCCCCC2)nc2cc(C(=O)N3CCCCCC3)nn12 [Example 136] | 452 | –
O=C(c1cc2nc(CC3CCCCC3)cc(C3CCC3)n2n1)N1CCCCCC1 [Example 137] | 482 | –
CCC1CCC(Cc2cc(C(C)C)n3nc(C(=O)N4CCCCC4)cc3n2)CC1 (stereo not shown) [Example 138] | 72 | –
CCC1CCC(Cc2cc(C(C)C)n3nc(C(=O)N4CCCCCC4)cc3n2)CC1 (stereo not shown) [Example 139] | 95 | –
CC(C)c1cc(CC2CCCCC2)nc2cc(C(=O)N3CCCCC3)nn12 [Example 140] | 266 | –
CCC(C)c1cc(CC2CCCC2)nc2cc(C(=O)N3CCCCC3)nn12 (stereo not shown) [Example 141] | 304 | –

Compound | IC50 (PAR2; [1]) [nM] | other results
CC(C)c1cc(CC2CCCCC2)nc2cc(C(=O)N3CCCC(F)(F)CC3)nn12 [Example 142] | 171 | –
CCC(C)c1cc(CC2CCCCC2)nc2cc(C(=O)N3CCCCCCC3)nn12 (stereo not shown) [Example 143] | 91 | –
CCc1cc(CC2CCCC2)nc2cc(C(=O)N3CCCCCCC3)nn12 [Example 145] | 252 | –
CCc1cc(CC2CCCCC2)nc2cc(C(=O)N3CCCCCCC3)nn12 [Example 146] | 136 | –
CCc1cc(CC2CCCCCC2)nc2cc(C(=O)N3CCCCCCC3)nn12 [Example 147] | 163 | –
CCc1cc(CC2CCCCCC2)nc2cc(C(=O)N3CCCCCC3)nn12 [Example 148] | 144 | –
CCC(C)c1cc(CC2CCCCCC2)nc2cc(C(=O)N3CCCCCC3)nn12 (stereo not shown) [Example 149] | 208 | –
CC(C)(C)c1cc(CC2CCCC2)nc2cc(C(=O)N3CCCCCCC3)nn12 [Example 150] | 180 | –
CC(C)c1cc(C2CC23CCCCC3)nc2cc(C(=O)N3CCCCCC3)nn12 (stereo not shown) [Example 151] | 149 | –
CC(C)c1cc(CC2CCC(C)(C)CC2)nc2cc(C(=O)N3CCCCCC3)nn12 [Example 152] | 132 | –
CC(C)c1cc(CC2CCC(F)CC2)nc2cc(C(=O)N3CCCCCC3)nn12 (stereo not shown) [Example 153] | 282 | –
CC(C)c1cc(CC2CC3CCC2C3)nc2cc(C(=O)N3CCCCCC3)nn12 (stereo not shown) [Example 154] | 47 | –
CC(C)c1cc(CC2CCC3CCCCC3C2)nc2cc(C(=O)N3CCCCCC3)nn12 (stereo not shown) [Example 155] | – | IC50 (PAR2; IC50 (nM)): 218 nM
CC(C)c1cc(CC2CCC(C(F)(F)F)CC2)nc2cc(C(=O)N3CCCCCC3)nn12 (stereo not shown) [Example 156] | 103 | –
CC(C)c1cc(C2CC3CCC2C3)nc2cc(C(=O)N3CCCCCC3)nn12 (stereo not shown) [Example 157] | 319 | –
CC(C)c1cc(CC2CCCCC2C)nc2cc(C(=O)N3CCCCCC3)nn12 (stereo not shown) [Example 158] | 117 | –
CC(C)c1cc(C2C3CCCCC32)nc2cc(C(=O)N3CCCCCC3)nn12 (stereo not shown) [Example 159] | 394 | –
CC(C)c1cc(CC2CC3(CCC3)C2)nc2cc(C(=O)N3CCCCCC3)nn12 [Example 160] | 147 | –
CC(C)(C)c1cc(CC2CCCCC2)nc2cc(C(=O)N3CCCCC3(C)C)nn12 [Example 161] | 296 | –
CC1(C)CCCCN1C(=O)c1cc2nc(C3CCCC3)cc(C(F)(F)F)n2n1 [Example 162] | 304 | –
